Assay results reported in patent US7468446B2, “Substituted heterocyclic compounds and uses thereof” (Celgene Corporation, priority 2004, dated 2008).

With `CCOc1cc(C(=CC#N)c2ccc3c(c2)CCO3)ccc1OC` (mixture of isomers) [compound 1, (E/Z) 3-(2,3-Dihydro-benzofuran-5-yl)-3-(3-ethoxy-4-methoxy-phenyl)-acrylonitrile] the melting point was 49 to 51 °C. With `CCOc1cc(C(=CC#N)c2ccc3c(c2)OCCN3C)ccc1OC` (mixture of isomers) [compound 3, (E/Z) 3-(3-Ethoxy-4-methoxy-phenyl)-3-(4-methyl-3,4-dihydro-2H-benzo[1,4]oxazin-7-yl)-acrylonitrile] the melting point was 99 to 101 °C. Work on `CCOc1cc(C(=CC#N)c2ccc3c(c2)nnn3C)ccc1OC` (mixture of isomers) [compound 4, (E/Z) 3-(3-Ethoxy-4-methoxy-phenyl)-3-(1-methyl-1H-benzotriazol-5-yl)-acrylonitrile] yielded a melting point of 180 to 182 °C. `CCOc1cc(C(=CC#N)c2ccc3ncccc3c2)ccc1OC` (mixture of isomers) [compound 5, (E/Z) 3-(3-Ethoxy-4-methoxy-phenyl)-3-quinolin-6-yl-acrylonitrile] showed a melting point of 114 to 116 °C. For `COc1cc(OC)cc(C(=CC#N)c2ccc3ncccc3c2)c1` (mixture of isomers) [compound 6, (E/Z) 3-(3,5-Dimethoxy-phenyl)-3-quinolin-6-yl-acrylonitrile], the melting point was 142 to 144 °C. In the case of `COc1cc(OC)cc(C(=CC#N)c2ccc3ccn(C)c3c2)c1` (mixture of isomers) [compound 7, (E/Z)-3-(3,5-Dimethoxy-phenyl)-3-(1-methyl-1H-indol-6-yl)-acrylonitrile], the melting point is reported as 117 to 119 °C. For `CCOc1cc(C(=CC#N)c2ccc3cc[nH]c3c2)ccc1OC` (mixture of isomers) [compound 8, (E/Z)-3-(3-Ethoxy-4-methoxy-phenyl)-3-(1H-indol-6-yl)-acrylonitrile], the melting point was 132 to 134 °C. Work on `CCOc1cc(C(=CC#N)c2ccc3occc3c2)ccc1OC` (mixture of isomers) [compound 10, (E/Z)-3-Benzofuran-5-yl-3-(3-ethoxy-4-methoxy-phenyl)-acrylonitrile] yielded a melting point of 95 to 97 °C. Compound `COc1cc(OC)cc(C(=CC#N)c2ccc3c(c2)OCCN3C)c1` [compound 2, 3-(3,5-Dimethoxy-phenyl)-3-(4-methyl-3,4-dihydro-2H-benzo[1,4]oxazin-7-yl)-acrylonitrile] has a melting point of 119 to 121 °C.
